Reference: ChEMBL document CHEMBL1158230, “Cytotoxicity and mode of action of aeroplysinin-1 and a related dienonefrom the sponge Aplysina aerophoba” (J Nat Prod, 1996)
pIC50: −log10 of the molar value.

Key:
Type in all cases: functional, cell-based
[1] = Cytotoxicity against human HeLaS3 cells after 4 days by MTT assay; conditions: HeLa S3, 96 h
[2] = Cytotoxicity against human HeLaS3 cells after 2 weeks by clonogenic assay; conditions: HeLa S3, 336 h
[3] = Cytotoxicity against human HeLaS3 cells after 2 hrs by MTT assay; conditions: HeLa S3, 2 h
[4] = Cytotoxicity against buthionine sulfoximine-pretreated mouse EN19 cells after 2 hrs by MTT assay
[5] = Cytotoxicity against buthionine sulfoximine-pretreated human HeLaS3 cells after 2 hrs by MTT assay; conditions: HeLa S3
[6] = Cytotoxicity against buthionine sulfoximine-pretreated human HeLaS3 cells after 4 days by MTT assay; conditions: HeLa S3
[7] = Cytotoxicity against mouse EN19 cells after 3 days by MTT assay; conditions: EN19, 72 h
[8] = Cytotoxicity against mouse EN19 cells after 2 hrs by MTT assay; conditions: EN19, 2 h
[9] = Cytotoxicity against mouse EN19 cells after 1 week by clonogenic assay; conditions: EN19, 168 h
[10] = Cytotoxicity against buthionine sulfoximine-pretreated mouse EN19 cells after 3 days by MTT assay

SMILES | pIC50 [1] | pIC50 [2] | pIC50 [3] | pIC50 [4] | pIC50 [5] | pIC50 [6] | pIC50 [7] | pIC50 [8] | pIC50 [9] | pIC50 [10]
COC1=C(Br)[C@H](O)[C@](O)(CC#N)C=C1Br | 5.25 | 4.56 | 4.73 | 5.96 | 5.27 | 5.55 | 5.21 | 5.09 | 4.43 | 6.15
NC(=O)CC1(O)C=C(Br)C(=O)C(Br)=C1 [VERONGIAQUINOL] | 4.81 | 4.24 | 4.50 | 5.41 | 4.80 | 4.98 | 4.58 | 4.34 | 4.13 | 5.27
